According to patent publication US6150332A, “Method and composition for lowering low density lipoprotein cholesterol” (Virginia Commonwealth University, priority 1998, dated 2000):

Columns and labels:
[1] = tested on: rat hepatocytes; experiment: Iodine labeled LDL binding in rat hepatocytes in culture; type: cell-based; conditions: 2 μM or 5 μM tested, added 24-48 hr after incubation began, FIG. 1b
Procedure: (§1) With reference to FIGS. 1a-b, an experiment was conducted wherein iodine labeled LDL was incubated with HepG2 or rat hepatocytes in culture with and without cleaved α1 -antitrypsin or hypocholesterolemic peptides. The cleaved α1 -antitrypsin and hypocholesterolemic peptides were added 24-48 hr after incubation began in 2 micromolar (μM) or 5 μM concentrations. The bound LDL was quantitated by counting. The control indicates the amount of bound LDL obtained when no cleaved α1 -antitrypsin or hypocholesterolemic peptides are present. FIGS. 1a-b show maximum LDL binding occurs when 2 μM α1 -antitrypsin or its peptide derivatives are added.

[2] = tested on: human HepG2 cells; experiment: Iodine labeled LDL binding in HepG2 cells in culture; type: cell-based; conditions: 2 μM or 5 μM tested, added 24-48 hr after incubation began, FIG. 1a
Procedure: as §1
An acetyl derivative of SEQ ID No. 16 was tested experimentally in human Hep G2 cells for LDL binding in the same manner as described above in connection with FIGS. 1a-b. […] ID No. 16. The sub-fragment was added 24-48 hours after incubation began in concentrations ranging from 0.13-1.4 μM.

## α1 -antitrypsin
[1]
  concentration at which maximum LDL binding occurs: 2 µM
[2]
  concentration at which maximum LDL binding occurs: 2 µM
